From patent publication US20250210128A1, “COMPUTER-IMPLEMENTED DESIGN OF PEPTIDE:RECEPTOR SIGNALING COMPLEXES FOR ENHANCED CHEMOTAXIS” (Ecole Polytechnique Federale de Lausanne (EPFL), priority 2022, published 2025) come the findings set out here.

In the test the test system is primary human T cells. Briefly: Boyden chamber migration assay of T cells transduced with CXCR4 variants. Format: cell-based. The settings on record: 100 nM wild-type CXCL12 full-length chemokine. As for the experimental part: T cells transduced and selected for CXCR4 variant expression from 3-6 donors were stained with 1 uM Vybrant DiO cell-labeling solution (Thermo, ref. V22886) in serum-free RPMI 1640+GlutaMax. 40,000 cells in 75 uL were seeded in each well of 96-well Boyden chambers with 5.0 μm pores (Corning, ref. 3388)^42. Reservoirs were filled with 200 uL serum-free RPMI 1640+GlutaMax or supplemented with 100 nM chemokine. The bottom of the attractant reservoir was imaged for migrated cells over the course of 8 hours with a Cytation 5 BioSpa (Biotek) at 37° C. with 5% CO2. Fluorescent spots were counted over time and compared to the no-chemokine control to calculate the migration index (#migrated cells towards attractant/#migrated cells towards no-attractant). The peak migration index was averaged between 3 technical replicates for each transduced donor per attractant concentration were plotted.

Consider “WT CXCR4: wild-type human CXCR4 (SEQ ID NO: 1; with N-terminal 3xHA-tag SEQ ID NO: 2)”, for which the “migration (fold-migration over no-chemoattractant control)” value is “around 1.5 fold”.
